For this assay, the system named is MCF7 multi-cell spheroids with HUVEC/MSC, viability. As to the kind of experiment: Anticancer human tumor MCF7 cell line growth inhibition [IpAb].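 For all read-outs here: spheroids exposed to agents for seven days before readout.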 Conditions: for viability, T/C: stronger effect = lower value. An excerpt: Combinatorial screen of targeted agents with ipatasertib and abemaciclib in multi-cell type tumor spheroids
A high-throughput screen of multi-cell type tumor spheroids was designed to identify active combinations of targeted small molecules and ipatasertib or abemaciclib. Complex spheroids include a stromal component modeled by human endothelial cells (HUVEC) and fibroblasts modeled by human mesenchymal stem cells (MSCs). The concentration ranges selected for each drug and investigational agent were based upon clinically achievable concentrations if the clinical Cmax of the agent was known.
Compounds. The drugs and investigational agents: ipatasertib (NSC767898), abemaciclib(NSC768073), selumetinib (NSC741078), trametinib (758246), adavosertib (NSC754352), everolimus (NSC733504), sapanisertib (NSC764658), vemurafenib (NSC761431), venetoclax (NSC766270), copanlisib (NSC809693), apelisib (NSC765974), palbociblib (NSC758247), vemurafenib (NSC761431), dabrafenib (NSC764134), ravoxertinib (NSC781343), BMS-387032 (NSC767048), sotorasib (NSC818433), talazoparib (NSC767125) and afursertib (NSC778305), were obtained from the National Cancer Institute (NCI) Developmental Therapeutics Program Chemical Repository. The FDA-approved anticancer drug set is available from the NCI Developmental Therapeutics Program. […] The stock solutions were prepared in dimethyl sulfoxide (DMSO, Sigma-Aldrich, St. Louis, MO, cat. D2650) at 800-fold the tested concentration and stored at -70 degrees C prior to their use. All drugs and investigational agents were tested over a range starting from a high concentration at or near the clinical Cmax and decreasing in half-log increments. If the clinical Cmax for an agent had not been determined, the highest concentration tested was 10 microM.
NCI60 Cell Culture. NCI60 cell lines were obtained from the NCI Developmental Therapeutics Program Tumor Repository. For each lot of cells, the Repository performed Applied Biosystems AmpFLSTR Identifiler testing with PCR amplification to confirm consistency with the published Identifier STR profile for each cell line. Cells were kept in continuous culture for no more than 20 passages. The optimal seeding densities for each of the cell lines at each time point assessed were determined prior to performing the concentration response studies. Briefly, the NCI60 human tumor lines were grown as monolayers in RPMI 1640 medium supplemented with 10% FBS and 2 mmol/L L-glutamine.
An additional 9 lines were from the NCI60 cell line panel including MDA-MB-231 breast carcinoma, MDA-MB-468 breast carcinoma, MCF7 breast carcinoma, Hs578T breast carcinoma, MALME-3M melanoma, SK-MEL-2 melanoma, SK-OV-3 ovarian carcinoma, DU-145 prostate carcinoma, PC-3 prostate carcinoma, all cell lines along with major genetic alterations are listed on Table 2. Pooled donor human umbilical vein endothelial cells (HUVEC, Lonza, cat. CC-2519) and human mesenchymal stem cells (hMSC, Lonza, cat. PT-2501) were purchased from Lonza (Walkersville, MD).
PDMR cell lines were grown in complete medium (DC medium): Dulbecco's modified Eagle's medium (DMEM)/F12 supplemented with 5% fetal bovine serum (FBS), 2 mM L-glutamine, 100 U/mL penicillin and 100 µg/ml streptomycin, 0.4 µg/ml hydrocortisone, 10 ng/ml epidermal growth factor (EGF) recombinant human protein, 24 µg/mL adenine, and 0.1 mg/mL primocin. During culture from frozen stock vials, PDMR cells were cultured in the same medium containing 10 µM Y-27632 (see Table 3). The PDCs were cultured in complete DMEM/F12 media without 10 microM Y-27632 dihydrochloride for at least two passages prior to the screen. The pooled donor HUVEC and hMSC were cultured in endothelial cell growth medium 2 (PromoCell, Heidelberg, Germany, cat. C-22011) and mesenchymal stem cell growth medium 2 (PromoCell, cat. C-28009), respectively. For all experiments, HUVEC and hMSC were used at passages </=5.
[…]

Several values for one entry are separate records, joined by “and”; a condition that tells them apart may be missing. Equal values may be shown once.

Results on five molecules are retold here after PubChem BioAssay AID2060329 (Molecular Pharmacology Branch, DTP, NCI, 2025).

For `C=CC(=O)N1CCN(c2nc(=O)n(-c3c(C)ccnc3C(C)C)c3nc(-c4c(O)cccc4F)c(F)cc23)C(C)C1` (stereo unspecified), the viability, T/C by setting is: (compound 0.0316 µM) 98.6% and 117%; (compound 0.1 µM) 106%; (compound 0.316 µM) 102% and 121%; (compound 1 µM) 103% and 107%; (compound 3.16 µM) 107% and 83.4%; (compound 10 µM) 71.2% and 76.7%. Besides, the IC50 (curve of compound) is > 10000 nM.

As to `CC(C)NCC(C(=O)N1CCN(c2ncnc3c2C(C)CC3O)CC1)c1ccc(Cl)cc1` (stereo unspecified), the viability, T/C is 86.9% [middle of 13 runs] (compound 0.1 µM), 75.5% [middle of 13 runs] (compound 0.316 µM), 65.3% [middle of 13 runs] (compound 1 µM) and 54.2% [middle of 13 runs] (compound 3.16 µM).

As to `CC(C)n1nc(-c2ccc3oc(N)nc3c2)c2c(N)ncnc21`, the viability, T/C (compound 0.000316 µM) is 98.9% and 88.3%; the viability, T/C (compound 0.001 µM) was 86.4% and 81.6%; the viability, T/C (compound 0.00316 µM) is 80.8% and 82.8%; the viability, T/C (compound 0.01 µM) is 73.5% and 65.5%; the viability, T/C (compound 0.0316 µM) is 42.5% and 29.7%; the viability, T/C (compound 0.1 µM) is 25% and 22.1%. Where the note is “curve of compound”, the concentration for half-maximal inhibition (IC50) was 25.9 nM and 16.4 nM.

As to `Cc1nc(NC(=O)N2CCCC2C(N)=O)sc1-c1ccnc(C(C)(C)C(F)(F)F)c1` (stereo unspecified) + CC(C)NCC(C(=O)N1CCN(c2ncnc3c2C(C)CC3O)CC1)c1ccc(Cl)cc1, the IC50 reads like this: (curve of first compound, second compound 0.1 µM) 1810 nM; (curve of first compound, second compound 0.316 µM) 398 nM; (curve of first compound, second compound 1 µM) < 31.6 nM; (curve of first compound, second compound 3.16 µM) < 31.6 nM; (curve of first compound, second compound 10 µM) < 31.6 nM. Further, the viability, T/C reads like this: (second compound 0.1 µM, first compound 0.0316 µM) 68.9%; (second compound 0.1 µM, first compound 0.1 µM) 66.4%; (second compound 0.1 µM, first compound 0.316 µM) 56.9%; (second compound 0.1 µM, first compound 1 µM) 52.7%; (second compound 0.1 µM, first compound 3.16 µM) 49.6%; (second compound 0.1 µM, first compound 10 µM) 20.4%. Moreover, the viability, T/C is 62.4% (second compound 0.316 µM, first compound 0.0316 µM); 57% (second compound 0.316 µM, first compound 0.1 µM); 50.3% (second compound 0.316 µM, first compound 0.316 µM); 42.8% (second compound 0.316 µM, first compound 1 µM); 37.8% (second compound 0.316 µM, first compound 3.16 µM); 19.9% (second compound 0.316 µM, first compound 10 µM). Further, the viability, T/C is 45.8% (second compound 1 µM, first compound 0.0316 µM); 52.7% (second compound 1 µM, first compound 0.1 µM); 36.2% (second compound 1 µM, first compound 0.316 µM); 34.7% (second compound 1 µM, first compound 1 µM); 34.4% (second compound 1 µM, first compound 3.16 µM); 9.85% (second compound 1 µM, first compound 10 µM). Also, the viability, T/C reads like this: (second compound 3.16 µM, first compound 0.0316 µM) 36.9%; (second compound 3.16 µM, first compound 0.1 µM) 38.1%; (second compound 3.16 µM, first compound 0.316 µM) 35.4%; (second compound 3.16 µM, first compound 1 µM) 29.5%; (second compound 3.16 µM, first compound 3.16 µM) 27.1%; (second compound 3.16 µM, first compound 10 µM) 7.55%. Besides, the viability, T/C reads like this: (second compound 10 µM, first compound 0.0316 µM) 28.6%; (second compound 10 µM, first compound 0.1 µM) 25.9%; (second compound 10 µM, first compound 0.316 µM) 26.1%; (second compound 10 µM, first compound 1 µM) 21.5%; (second compound 10 µM, first compound 3.16 µM) 28.4%; (second compound 10 µM, first compound 10 µM) 1.68%.

In the case of `CCN1CCN(Cc2ccc(Nc3ncc(F)c(-c4cc(F)c5nc(C)n(C(C)C)c5c4)n3)nc2)CC1`, the viability, T/C reads like this: (compound 0.01 µM) 97.5% [middle of 13 runs]; (compound 0.0316 µM) 101% [middle of 13 runs]. Further, under “compound alone, run of 06/01/2021”, the IC50 was > 1000 nM.

Usually viability, T/C stands for the ratio of treated to control. For orientation: IC50 means the concentration that gives 50% inhibition.
